# Experimental data from ChEMBL document CHEMBL1909046, “DrugMatrix in vitro pharmacology data”.
# Columns and labels:
# [1] = molecular target: T1, 5-hydroxytryptamine receptor 2C (Homo sapiens, UniProt P28335); experiment: DRUGMATRIX: Serotonin (5-Hydroxytryptamine) 5-HT2C radioligand binding (ligand: [3H] Mesulergine); assay type: cell membranes, CHO-K1, Membrane; conditions: Not Active = under 50% inhibition at 10 µM
# T1 sequence (P28335 whole entry): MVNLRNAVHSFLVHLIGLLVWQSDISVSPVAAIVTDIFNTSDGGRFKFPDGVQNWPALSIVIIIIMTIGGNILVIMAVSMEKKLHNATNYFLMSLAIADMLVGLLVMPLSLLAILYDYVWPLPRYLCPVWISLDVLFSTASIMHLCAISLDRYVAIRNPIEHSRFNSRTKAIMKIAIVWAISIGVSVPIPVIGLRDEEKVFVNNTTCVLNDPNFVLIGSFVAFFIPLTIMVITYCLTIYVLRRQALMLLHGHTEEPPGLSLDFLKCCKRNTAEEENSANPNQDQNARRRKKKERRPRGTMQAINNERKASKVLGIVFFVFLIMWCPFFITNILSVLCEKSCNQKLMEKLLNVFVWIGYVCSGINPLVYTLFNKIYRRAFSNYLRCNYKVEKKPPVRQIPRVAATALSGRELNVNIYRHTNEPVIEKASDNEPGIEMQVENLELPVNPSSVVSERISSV
# [2] = DRUGMATRIX: Tumor Necrosis Factor (TNF), Non-Selective radioligand binding (ligand: [125I] TNF-alpha); assay type: cell membranes, Membrane; conditions: u-937; Not Active = under 50% inhibition at 10 µM
# [3] = molecular target: Prostaglandin G/H synthase 1 (Homo sapiens, UniProt P23219); experiment: biochemical; assay type: tissue-based, Platelet; conditions: platelet;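 also: inhibition of COX-1 enzyme activity, with arachidonic acid supplied as substrate; in other assays of this panel Not Active means under 50% inhibition at 10 µM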
# D(3) dopamine receptor = D(3) dopamine receptor (Homo sapiens, UniProt P35462); experiment: DRUGMATRIX: Dopamine D3 radioligand binding (ligand: [3H] Spiperone); assay type: cell membranes, CHO, Membrane; conditions: cho
# [4] = molecular target: T2, Receptor-type tyrosine-protein phosphatase C (Homo sapiens, UniProt P08575); parameters: species or system Escherichia coli;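 also: inhibition of CD45 enzyme activity measured using DiFMUP as substrate; in other assays of this panel Not Active means under 50% inhibition at 10 µM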
# T2 sequence (P08575 whole entry): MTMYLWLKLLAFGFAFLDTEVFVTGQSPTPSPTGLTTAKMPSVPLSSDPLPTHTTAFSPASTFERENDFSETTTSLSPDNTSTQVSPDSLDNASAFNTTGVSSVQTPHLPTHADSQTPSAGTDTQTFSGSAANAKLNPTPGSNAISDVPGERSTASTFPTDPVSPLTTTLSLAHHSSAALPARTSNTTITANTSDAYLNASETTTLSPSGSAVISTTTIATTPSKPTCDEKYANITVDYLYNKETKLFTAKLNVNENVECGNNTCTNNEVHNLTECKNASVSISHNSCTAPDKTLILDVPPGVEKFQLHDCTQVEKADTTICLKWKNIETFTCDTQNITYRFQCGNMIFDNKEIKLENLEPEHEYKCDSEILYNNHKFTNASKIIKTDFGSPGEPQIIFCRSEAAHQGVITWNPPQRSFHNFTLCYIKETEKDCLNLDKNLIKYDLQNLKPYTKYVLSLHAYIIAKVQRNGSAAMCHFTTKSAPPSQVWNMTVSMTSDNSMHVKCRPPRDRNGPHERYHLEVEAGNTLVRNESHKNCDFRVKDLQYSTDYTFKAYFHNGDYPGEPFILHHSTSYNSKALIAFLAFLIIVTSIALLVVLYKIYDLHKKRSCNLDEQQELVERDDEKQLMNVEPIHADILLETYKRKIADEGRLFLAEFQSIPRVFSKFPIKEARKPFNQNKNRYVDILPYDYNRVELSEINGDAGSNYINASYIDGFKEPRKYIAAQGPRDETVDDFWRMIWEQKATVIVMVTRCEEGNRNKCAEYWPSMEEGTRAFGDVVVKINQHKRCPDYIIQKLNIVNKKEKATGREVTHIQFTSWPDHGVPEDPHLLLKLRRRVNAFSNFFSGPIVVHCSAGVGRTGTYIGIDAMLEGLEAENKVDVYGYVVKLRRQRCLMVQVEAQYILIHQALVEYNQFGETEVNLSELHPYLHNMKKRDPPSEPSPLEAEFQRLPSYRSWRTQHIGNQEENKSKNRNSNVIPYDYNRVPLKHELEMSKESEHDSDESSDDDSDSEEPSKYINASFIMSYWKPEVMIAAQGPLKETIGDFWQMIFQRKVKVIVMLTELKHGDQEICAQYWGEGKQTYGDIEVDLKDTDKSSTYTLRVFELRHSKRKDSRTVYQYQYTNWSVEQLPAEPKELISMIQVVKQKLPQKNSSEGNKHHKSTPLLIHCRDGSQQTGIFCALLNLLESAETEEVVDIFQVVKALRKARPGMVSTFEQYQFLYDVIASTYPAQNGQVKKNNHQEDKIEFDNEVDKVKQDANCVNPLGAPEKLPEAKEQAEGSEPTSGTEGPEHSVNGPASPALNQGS
# Chain of D(3) dopamine receptor (P35462 whole entry): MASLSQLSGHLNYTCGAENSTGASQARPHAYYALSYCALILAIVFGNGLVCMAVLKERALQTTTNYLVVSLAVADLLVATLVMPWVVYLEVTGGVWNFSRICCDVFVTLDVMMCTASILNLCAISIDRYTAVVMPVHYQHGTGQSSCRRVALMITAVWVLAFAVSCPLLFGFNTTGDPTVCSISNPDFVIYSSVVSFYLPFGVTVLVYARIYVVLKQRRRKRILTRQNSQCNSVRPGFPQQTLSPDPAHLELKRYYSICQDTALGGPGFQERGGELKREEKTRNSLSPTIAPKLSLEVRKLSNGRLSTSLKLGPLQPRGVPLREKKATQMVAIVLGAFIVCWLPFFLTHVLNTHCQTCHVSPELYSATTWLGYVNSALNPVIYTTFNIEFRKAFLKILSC
# Chain of Prostaglandin G/H synthase 1 (P23219 whole entry): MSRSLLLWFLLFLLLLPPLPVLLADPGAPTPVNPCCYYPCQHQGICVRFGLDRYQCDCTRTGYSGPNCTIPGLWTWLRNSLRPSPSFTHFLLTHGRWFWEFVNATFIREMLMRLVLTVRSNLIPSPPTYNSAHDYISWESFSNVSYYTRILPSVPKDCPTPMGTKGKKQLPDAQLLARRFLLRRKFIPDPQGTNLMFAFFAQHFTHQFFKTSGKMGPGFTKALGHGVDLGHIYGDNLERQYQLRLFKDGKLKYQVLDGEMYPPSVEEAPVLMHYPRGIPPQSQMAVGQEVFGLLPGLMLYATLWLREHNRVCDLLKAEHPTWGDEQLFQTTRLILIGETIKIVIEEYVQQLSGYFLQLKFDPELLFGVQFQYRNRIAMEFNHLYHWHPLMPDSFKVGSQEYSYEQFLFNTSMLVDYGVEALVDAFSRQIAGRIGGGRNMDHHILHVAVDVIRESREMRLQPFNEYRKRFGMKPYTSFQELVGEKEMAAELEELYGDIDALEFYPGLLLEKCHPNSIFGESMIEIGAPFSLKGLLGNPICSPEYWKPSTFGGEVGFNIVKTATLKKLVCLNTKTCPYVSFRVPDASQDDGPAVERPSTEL
SMILES,IC50 ([1]; cho-k1),IC50 [2],Ki [2],IC50 [3],IC50 (D(3) dopamine receptor),IC50 [4],IC50 ([1]; read-out: IC50) [µM],Ki ([1]; read-out: Ki) [µM]
C[C@H]1C[C@H]2[C@@H]3CCC4=CC(=O)C=C[C@]4(C)[C@@]3(F)[C@@H](O)C[C@]2(C)[C@@]1(O)C(=O)CO [BETAMETHASONE],Not Active,Not Active,Not Active,Not Active,Not Active,Not Active,,
CC(C)NCC(O)COc1ccc(CC(N)=O)cc1 (stereo not drawn) [ATENOLOL],Not Active,Not Active,Not Active,Not Active,Not Active,Not Active,,
O=C1c2ccccc2C(=O)C1c1ccccc1 [PHENINDIONE],Not Active,Not Active,Not Active,Not Active,Not Active,Not Active,,
O=c1[nH]cnc2c1ncn2[C@H]1CC[C@@H](CO)O1 [DIDANOSINE],Not Active,Not Active,Not Active,Not Active,Not Active,Not Active,,
CC(=O)Nc1ccc2c(c1)Cc1ccccc1-2 [2-ACETYLAMINOFLUORENE],,Not Active,Not Active,Not Active,Not Active,Not Active,2.14,1.12
CC(C)(c1ccc(O)cc1)c1ccc(O)cc1 [BISPHENOL A],Not Active,Not Active,Not Active,Not Active,Not Active,Not Active,,
CO[C@H]1O[C@@H]2O[C@@]3(C)CC[C@H]4[C@H](C)CC[C@@H]([C@H]1C)[C@@]24OO3,Not Active,Not Active,Not Active,Not Active,Not Active,Not Active,,
C#C[C@]1(O)CC[C@H]2[C@@H]3CCC4=CC(=O)CC[C@@H]4[C@H]3CC[C@@]21C [NORETHINDRONE],Not Active,Not Active,Not Active,Not Active,Not Active,Not Active,,
CC12CCC(CC1=O)C2(C)C (stereo not drawn) [CAMPHOR],Not Active,Not Active,Not Active,Not Active,Not Active,Not Active,,
C[C@@H]1[C@H](O)[C@@H](C)/C=C/C=C/C=C/C=C/C=C/C=C/C=C/[C@H](O[C@@H]2O[C@H](C)[C@@H](O)[C@H](N)[C@@H]2O)C[C@@H]2O[C@](O)(C[C@@H](O)C[C@@H](O)[C@H](O)CC[C@@H](O)C[C@@H](O)CC(=O)O[C@H]1C)C[C@H](O)[C@H]2C(=O)O [AMPHOTERICIN B],Not Active,Not Active,Not Active,Not Active,Not Active,Not Active,,
Nc1ccc(Cc2ccc(N)cc2)cc1,Not Active,Not Active,Not Active,Not Active,Not Active,Not Active,,
CCN(CCO)CCCC(C)Nc1ccnc2cc(Cl)ccc12 (stereo not drawn) [HYDROXYCHLOROQUINE],Not Active,Not Active,Not Active,Not Active,Not Active,Not Active,,
O=C(O)CCc1nc(-c2ccccc2)c(-c2ccccc2)o1 [OXAPROZIN],Not Active,Not Active,Not Active,,Not Active,Not Active,,
